Assay results published in patent US8134015B2, “Compound inhibiting in vivo phosphorous transport and medicine containing the same” (Kyowa Hakko Kirin Co., Ltd., priority 2003, dated 2012).

Target: T1, rat NaPi-2b (Rattus norvegicus, UniProt Q9JJ09)
T1 construct: expressed in transfected cells; host or cells: Xenopus oocytes injected with cRNA
T1 sequence (Q9JJ09 1-695): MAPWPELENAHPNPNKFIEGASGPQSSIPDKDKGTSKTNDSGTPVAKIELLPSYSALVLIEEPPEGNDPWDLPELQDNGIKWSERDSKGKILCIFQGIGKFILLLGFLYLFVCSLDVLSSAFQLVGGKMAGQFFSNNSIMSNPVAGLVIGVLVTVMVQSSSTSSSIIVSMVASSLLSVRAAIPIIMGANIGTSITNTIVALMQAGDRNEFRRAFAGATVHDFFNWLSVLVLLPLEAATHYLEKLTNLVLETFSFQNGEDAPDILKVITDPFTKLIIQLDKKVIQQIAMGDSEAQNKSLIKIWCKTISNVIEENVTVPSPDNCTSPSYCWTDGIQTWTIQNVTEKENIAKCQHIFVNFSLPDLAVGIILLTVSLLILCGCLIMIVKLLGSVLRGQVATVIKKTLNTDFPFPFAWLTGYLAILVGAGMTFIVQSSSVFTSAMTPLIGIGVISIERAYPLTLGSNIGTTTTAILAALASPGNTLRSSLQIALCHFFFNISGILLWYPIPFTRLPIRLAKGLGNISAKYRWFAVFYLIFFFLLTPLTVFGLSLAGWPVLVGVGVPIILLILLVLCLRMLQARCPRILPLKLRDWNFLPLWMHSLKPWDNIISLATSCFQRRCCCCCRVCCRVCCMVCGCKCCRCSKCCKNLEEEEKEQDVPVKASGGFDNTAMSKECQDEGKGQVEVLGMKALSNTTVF
Assay: Sodium-dependent phosphate uptake of Xenopus oocytes which expressed NaPi-2b (32P)
Format: cell-based
Settings: Xenopus oocytes expressing rat NaPi-2b, 32P radioactive phosphorus; read-out: IC50 (phosphate uptake inhibitory activity)
In short: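 Percent inhibition at 300 μM and 100 μM comes from the same inhibition curve of 32P uptake. Assay used oocytes expressing rat NaPi-2b after 2 days of culture.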

| SMILES | IC50 [µM] |
| --- | --- |
| CCc1ccc(C(=O)Nc2ccc(Br)cc2C(=O)N/N=C/c2ccc(C)cc2)cc1 [Compound 181, N-[4-Bromo-2-(4-methyl-benzylidene-hydrazinocarbonyl)-phenyl]-4-ethyl-benzamide] | 3.16 |
| Cc1ccc(/C=N/NC(=O)c2cc(Cl)ccc2NC(=O)c2cccc(CN3CCC(N4CCCCC4)CC3)c2)cc1 [Compound 371, 3-[1,4′]Bipiperidinyl-1′-ylmethyl-N-[4-chloro-2-(4-methyl-benzylidene-hydrazinocarbonyl)-phenyl]-benzamide] | 2.54 |
| CCN1CC(NCc2ccc(C(=O)Nc3ccc(Br)cc3C(=O)N/N=C/c3ccc(OC)cc3)cc2)CN1CC [Compound 756, N-[4-Bromo-2-(4-methoxy-benzylidene-hydrazinocarbonyl)-phenyl]-4-[(1,2-diethyl-pyrazolidin-4-ylamino)-methyl]-benzamide] | 10.3 |
| CCN(CC)CCN(C)Cc1cccc(C(=O)Nc2sc3c(c2C(=O)N/N=C/c2ccc(OC)cc2)CCCC3)c1 [Compound 614, 3-{[(2-Diethylamino-ethyl)-methyl-amino]-methyl}-N-[3-(4-methoxy-benzylidene-hydrazinocarbonyl)-4,5,6,7-tetrahydro-benzo-[b]thiophen-2-yl]-benzamide] | 3.29 |
| Cc1csc(NC(=O)c2cccc(CN3CCC(O)CC3)c2)c1C(=O)N/N=C/c1cccc(F)c1 [Compound 596, N-[3-(3-Fluoro-benzylidene-hydrazinocarbonyl)-4-methyl-thiophen-2-yl]-3-(4-hydroxy-piperidin-1-ylmethyl)-benzamide] | 5.47 |
| O=C(Nc1ccc(Br)cc1C(=O)N/N=C/c1cccc(F)c1)c1ccc(CSCCO)cc1 [Compound 261, N-[4-Bromo-2-(3-fluoro-benzylidene-hydrazinocarbonyl)-phenyl]-4-(2-hydroxy-ethylsulfanylmethyl)-benzamide] | < 3 |
| CC(O)CN(Cc1cccc(C(=O)Nc2sc3c(c2C(=O)N/N=C/c2ccc(Cl)c(C(F)(F)F)c2)CCC3)c1)CC(C)O (centres unmarked) [Compound 808, 3-{[Bis-(2-hydroxy-propyl)-amino]-methyl}-N-[3-(4-chloro-3-trifluoromethyl-benzylidene-hydrazinocarbonyl)-5,6-dihydro-4H-cyclopenta[b]thiophen-2-yl]-benzamide] | 1.97 |
| Cc1cccc(/C=N/NC(=O)c2cc(I)ccc2NC(=O)c2cccc(CN3CCC(N4CCCCC4)CC3)c2)c1 [Compound 484, 3-[1,4′]Bipiperidinyl-1′-ylmethyl-N-[4-iodo-2-(3-methyl-benzylidene-hydrazinocarbonyl)-phenyl]-benzamide] | < 3 |
| COc1cccc(/C=N/NC(=O)c2cc(Br)ccc2NC(=O)c2ccc(CN3CCN(CCO)CC3)cc2)c1 [Compound 323, N-[4-Bromo-2-(3-methoxy-benzylidene-hydrazinocarbonyl)-phenyl]-4-[4-(2-hydroxy-ethyl)-piperazin-1-ylmethyl]-benzamide] | 4.69 |
| Cc1cccc(/C=N/NC(=O)c2ccccc2NC(=O)c2ccc(F)cc2)c1 [Compound 78, 4-Fluoro-N-[2-(3-methyl-benzylidene-hydrazinocarbonyl)-phenyl]-benzamide] | 7.17 |
| CCN(CC)CCN(C)Cc1cccc(C(=O)Nc2ccc(I)cc2C(=O)N/N=C/c2cccc(C)c2)c1 [Compound 474, 3-{[(2-Diethylamino-ethyl)-methyl-amino]-methyl}-N-[4-iodo-2-(3-methyl-benzylidene-hydrazinocarbonyl)-phenyl]-benzamide] | < 3 |
| CN(CCCN(C)Cc1cccc(C(=O)Nc2ccc(Cl)cc2C(=O)N/N=C/c2cccc(F)c2)c1)Cc1cccc(C(=O)Nc2ccc(Cl)cc2C(=O)N/N=C/c2cccc(F)c2)c1 [Compound 685, N1-[4-Chloro-2-({2-[(E)-1-(3-fluorophenyl)methylidene]hydrazino}carbonyl}phenyl}-3-{[{3-[(3-{[4-chloro-2-({2-[(E)-1-(3-fluorophenyl)methylidene]hydrazino}carbonyl}-anilino}carbonyl}benzyl}(methyl)amino)propyl)(methyl)amino]methyl]-benzamide] | 36.4 |
| O=C(Nc1ccccc1C(=O)N/N=C/c1ccccc1Br)c1ccccc1 [Compound 228, N-[2-(2-Bromo-benzylidene-hydrazinocarbonyl)-phenyl]-benzamide] | 22.5 |
| CCN(CC)CCN(C)Cc1cccc(C(=O)Nc2scc(C)c2C(=O)N/N=C/c2ccc(C)cc2)c1 [Compound 564, 3-{[(2-Diethylamino-ethyl)-methyl-amino]-methyl}-N-[4-methyl-3-(4-methyl-benzylidene-hydrazinocarbonyl)-thiophen-2-yl]-benzamide] | 11.6 |
| Cc1ccc(/C=N/NC(=O)c2c(NC(=O)c3cccc(CN4CCC(CO)CC4)c3)sc3c2CCC3)cc1C [Compound 816, N-[3-(3,4-Dimethyl-benzylidene-hydrazinocarbonyl)-5,6-dihydro-4H-cyclopenta[b]thiophen-2-yl]-3-(4-hydroxymethyl-piperidin-1-ylmethyl)-benzamide] | 14.8 |
| CCN(CC)CCN(C)Cc1cccc(C(=O)Nc2ccc(I)cc2C(=O)N/N=C/c2cccc(OC)c2)c1 [Compound 478, 3-{[(2-Diethylamino-ethyl)-methyl-amino]-methyl}-N-[4-iodo-2-(3-methoxy-benzylidene-hydrazinocarbonyl)-phenyl]-benzamide] | < 3 |
| O=C(Nc1ccc(Br)cc1C(=O)N/N=C/c1ccc(F)cc1)c1ccc(CN2CCN(CCO)CC2)cc1 [Compound 319, N-[4-Bromo-2-(4-fluoro-benzylidene-hydrazinocarbonyl)-phenyl]-4-[4-(2-hydroxy-ethyl)-piperazin-1-ylmethyl]-benzamide] | 9.76 |
| COc1ccc(C(=O)Nc2ccc(Br)cc2C(=O)N/N=C/C=C/c2ccccc2)cc1OC [Compound 13, N-[4-Bromo-2-(3-phenyl-allylidene-hydrazinocarbonyl)-phenyl]-3,4-dimethoxy-benzamide] | 9.22 |

Same assay, conditions: phosphate uptake, oocytes expressing rat NaPi-2b; 100 μM, determined from inhibition curve

| SMILES | inhibition at 100 µM [%] |
| --- | --- |
| COc1ccc(/C=N/NC(=O)c2cc(N3CCC(N4CCCCC4)CC3)ccc2NC(=O)c2cccc(CSCCO)c2)cc1 [Compound 1068] | 74.4 |

Same assay, conditions: phosphate uptake, oocytes expressing rat NaPi-2b; 300 μM, determined from inhibition curve

| SMILES | inhibition at 300 µM [%] |
| --- | --- |
| O=C(Nc1ccc(Br)cc1C(=O)N/N=C/c1cccc(F)c1)c1ccc(CN2CCC(CCO)CC2)cc1 [Compound 744, N-[4-Bromo-2-(3-fluoro-benzylidene-hydrazinocarbonyl)-phenyl]-4-[4-(2-hydroxy-ethyl)-piperidin-1-ylmethyl]-benzamide] | 83.7 |
| COc1cccc(/C=N/NC(=O)c2cc(Br)ccc2NC(=O)c2ccc(CNCCN3CCOCC3)cc2)c1 [Compound 716, N-[4-Bromo-2-(3-methoxy-benzylidene-hydrazinocarbonyl)-phenyl]-4-[(2-morpholin-4-yl-ethylamino)-methyl]-benzamide] | 85.8 |
| Cc1ccc(/C=N/NC(=O)c2c(C)csc2NC(=O)c2cccc(CSCCS(=O)(=O)O)c2)cc1 [Compound 782, 2-{3-[4-Methyl-3-(4-methyl-benzylidene-hydrazinocarbonyl)-thiophen-2-ylcarbamoyl]-benzylsulfanyl}-ethanesulfonic acid] | 86.8 |
| COc1ccc(/C=N/NC(=O)c2cc(Br)ccc2NC(=O)c2ccc(CN3CCN(c4ccccn4)CC3)cc2)cc1 [Compound 777, N-[4-Bromo-2-(4-methoxy-benzylidene-hydrazinocarbonyl)-phenyl]-4-(4-pyridin-2-yl-piperazin-1-ylmethyl)-benzamide] | 34.2 |
